One may read the IC50 as the concentration at which inhibition is half-maximal.

Activity calls are given as the source filed them. No cut-off for these calls is given here. A value given as a limit tells only on which side of the number the result lay.

Our source for the Activity and IC50 values is ChEMBL document CHEMBL5321260, “Pseudo-Enantiomeric Paraphaeolactones and Their Biosynthetic Derivatives from Paraphaeosphaeria sp. KT4192: A Proposition of a Favorskii Rearrangement for Their Biosynthesis” (J Nat Prod, 2023).

The test system of one assay is Bipolaris oryzae. The assay can be described thus: Antifungal activity against Bipolaris oryzae incubated for 5 days. The assay is classed as functional, organism-based. To be noted: time 5.0 day.
The next assay relates to COLO 201. Put plainly: Cytotoxicity against human COLO201 cells assessed as reduction in cell proliferation measured after 24 hrs by WST-1 assay. The assay is classed as functional, cell-based. Conditions: COLO 201, 24 h.

In the case of `C[C@@H]1C=C[C@]2(O)C[C@@]3(O)C(=O)O[C@@H]2[C@@H]13`, the outcome in the assay on Bipolaris oryzae was inactive. Also, in the assay on COLO 201, the IC50 is over 500 µM.

With `C=C1OC(=O)[C@]23[C@@H]1O[C@H](CC(=O)[C@@H]2O)[C@H]3C`, in the assay on Bipolaris oryzae, the result was inactive. Moreover, the half-inhibitory concentration (IC50) with COLO 201 amounted to 390 µM.

For the compound `C[C@@H]1C=C[C@@]2(O)C[C@]3(O)C(=O)O[C@H]2[C@H]13`, the result with Bipolaris oryzae was inactive. The 50% inhibitory concentration (IC50) in the assay with COLO 201 stood at 300 µM.

Consider `CC(=O)[C@@H](O)c1c(C)ccc2c1O[C@]1(O2)[C@@]2(O)C=C[C@@H](C)[C@@H]3[C@H]2OC(=O)[C@@]31O`, for which, in the assay on Bipolaris oryzae, the outcome was inactive. In addition, in the assay on COLO 201, the IC50 is 260 µM.

As for `CC(=O)[C@@H](O)c1c(C)ccc2c1O[C@@]1(O2)[C@@]2(O)C=C[C@@H](C)[C@@H]3[C@H]2OC(=O)[C@@]31O`, the outcome in the assay with Bipolaris oryzae was inactive. The IC50 in the assay on COLO 201 was found to be 200 µM.

Regarding `COC(=O)[C@]12[C@@H](C(C)=O)O[C@H](CC(=O)[C@@H]1O)[C@H]2C`, the outcome with Bipolaris oryzae was inactive. For the same compound, in the assay with COLO 201, the half-maximal inhibitory concentration (IC50) was found to be 200 µM.

`CC(=O)C(O)c1cc(O)ccc1C` (stereo not drawn): the result in the assay on Bipolaris oryzae was inactive. Besides, in the assay on COLO 201, the concentration for half-maximal inhibition (IC50) was 340 µM.

With `Cc1ccc(O)cc1C(=O)[C@H](C)O`, in the assay on Bipolaris oryzae, the outcome was inactive. The 50% inhibitory concentration (IC50) in the assay on COLO 201 was 290 µM.

Take `CC(=O)[C@H](O)[C@H]1[C@H](C)C=CC(=O)[C@@H]1O`: in the assay on Bipolaris oryzae, the outcome was inactive. In the assay with COLO 201, the concentration for half-maximal inhibition (IC50) is over 500 µM.
